Test results published in patent US20160250121A1, “USE OF MONO ORNITHINE KETOGLUTARATE (MOKG)” (L'OREAL, priority 2013, published 2016).

System: Hair follicles
Experiment: Activity of actives on hair follicle growth (cultured scalp hair follicles, elongation by image analysis)
Type: cell-based
Details: for Growth: average elongation as percentage of control group (=100), 6 days of cultivation (5 of treatment)
Procedure: Hair follicles were taken from a single donor's scalp sample and transferred in sterile 24 well plates to be cultivated by using a modified Williams' Medium E. Cultivation took place for six days, while the experimental treatment of the follicles started 24 hours from the beginning of the cultivation. Hair follicles were selected for the experiments after 18 h of cultivation. Only those follicles showing a good vital stage and a growth of not less than 0.2 mm were considered suitable to be maintained in culture. All experimental groups and the control were prepared comprising 12 to 18 follicles, plated in 24-well plates at a density of 3 hair follicles/well. The hair follicles showing evident signs of sufferance during the culture for reasons not dependent on the experimental treatment were excluded from the final analysis.
The treatments consisted of mOKG concentrations varying from 0.001 to 0.1% b.w.
The growth performances observed in the treated hair follicles were compared to a control group cultured in the same culture medium free from OMG.
The experiment was terminated after 6 days of cultivation (5 of treatment). The growth of the hair follicles was studied by microphotography and subsequently determined by image analysis.
The average elongation detected in the experimental groups was expressed as percentage value of the growth performed by the control group. The statistical significance of the effects produced by the treatments was evaluated by means of analysis of variance (ANOVA) according the Duncan's method.

[1] = Conc. 0.001% b.w. in culture medium
[2] = Conc. 0.01% b.w. in culture medium
[3] = Conc. 0.1% b.w. in culture medium

Molecule | Growth [1] [%] | Growth [2] [%] | Growth [3] [%] | Factor between effective concentrations (mOKG 0.001% b.w. vs OKG 0.1% b.w.) (mOKG significantly effective at 0.001% b.w. as OKG at 0.1% b.w.)
O=C(O)CCC(=O)C(=O)O [Alpha-ketoglutarate] | 101 | 103 | 104 | 
NCCC[C@H](N)C(=O)O.O=C(O)CCC(=O)C(=O)O [Mono Ornithine Ketoglutarate, Mono-Ornithine (alpha-) ketoglutarate] | 112 | 120 | 122 | 100
Cl.NCCC[C@H](N)C(=O)O [Ornithine hydrochloride] | 100 | 102 | 106 | 
Di Ornithine Ketoglutarate | 101 | 107 | 116 | 
